According to patent publication US20220235065A1 (Epizyme, Inc., priority 2016, published 2022):

molecular target: T1, recombinant purified human EHMT2 913-1193 (Homo sapiens, UniProt Q96KQ7); assay: EHMT2 enzyme assay on histone peptide substrate (3H-SAM Flashplate); assay type: biochemical; details: read-out: EHMT2 PEP (IC50 μM)
T1 construct: Recombinant purified human EHMT2 913-1193 (55 μM) synthesized by Viva was used for all experiments; purchased Viva
T1 sequence (Q96KQ7 913-1193): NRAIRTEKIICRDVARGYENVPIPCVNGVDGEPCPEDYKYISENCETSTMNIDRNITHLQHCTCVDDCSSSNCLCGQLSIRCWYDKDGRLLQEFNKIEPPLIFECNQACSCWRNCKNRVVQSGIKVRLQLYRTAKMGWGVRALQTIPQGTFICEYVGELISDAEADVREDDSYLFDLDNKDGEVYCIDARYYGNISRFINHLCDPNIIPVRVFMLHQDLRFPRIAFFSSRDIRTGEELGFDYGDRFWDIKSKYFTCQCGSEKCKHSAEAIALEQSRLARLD
Protocol: Recombinant purified human EHMT2 913-1193 (55 μM) synthesized by Viva was used for all experiments. Biotinylated histone peptides were synthesized by Biopeptide and HPLC-purified to >95% purity. Streptavidin Flashplates and seals were purchased from PerkinElmer and 384 Well V-bottom Polypropylene Plates were from Greiner. ^3H-labeled S-adenosylmethionine (3H-SAM) was obtained from American Radiolabeled Chemicals with a specific activity of 80 Ci/mmol. Unlabeled SAM and S-adenosylhomocysteine (SAH) were obtained from American Radiolabeled Chemicals and Sigma-Aldrich respectively. Flashplates were washed in a Biotek ELx-405 with 0.1% Tween. 384-well Flashplates and 96-well filter binding plates were read on a TopCount microplate reader (PerkinElmer). Compound serial dilutions were performed on a Freedom EVO (Tecan) and spotted into assay plates using a Thermo Scientific Matrix PlateMate (Thermo Scientific). Reagent cocktails were added by Multidrop Combi (Thermo Scientific).
General Procedure for EHMT2 Enzyme Assay on Histone Peptide Substrate.
10-point curves of test compounds were made on a Freedom EVO (Tecan) using serial 3-fold dilutions in DMSO, beginning at 2.5 mM (final top concentration of compound was 50 μM and the DMSO was 2%). A 1 μL aliquot of the inhibitor dilution series was spotted in a polypropylene 384-well V-bottom plate (Greiner) using a Thermo Scientific Matrix PlateMate (Thermo Scientific). The 100% inhibition control consisted of 1 mM final concentration of the product inhibitor S-adenosylhomocysteine (SAH, Sigma-Aldrich). Compounds were incubated for 30 minutes with 40 μL per well of 0.031 nM EHMT2 (recombinant purified human EHMT2 913-1193, Viva) in 1× assay buffer (20 mM Bicine [pH 7.5], 0.002% Tween 20, 0.005% Bovine Skin Gelatin and 1 mM TCEP). 10 μL per well of substrate mix comprising assay buffer, ^3H-SAM (3H-labeled S-adenosylmethionine, American Radiolabeled Chemicals, specific activity of 80 Ci/mmol), unlabeled SAM (American Radiolabeled Chemicals), and peptide representing histone H3 residues 1-15 containing C-terminal biotin (appended to a C-terminal amide-capped lysine, synthesized by Biopeptide and HPLC-purified to greater than 95% purity) were added to initiate the reaction (both substrates were present in the final reaction mixture at their respective Km values, an assay format referred to as “balanced conditions”). Reactions were incubated for 60 minutes at room temperature and quenched with 10 μL per well of 400 μM unlabeled SAM, then transferred to a 384-well streptavidin Flashplate (PerkinElmer) and washed in a Biotek ELx-405 well washer with 0.1% Tween after 60 minutes. 384-well Flashplates were read on a TopCount microplate reader (PerkinElmer).
IC50 curves were generated using triplicate wells per concentration of compound. The IC50 is the concentration of compound at which measured methylation is inhibited by 50% as interpolated from the dose response curves. IC50 values were calculated using a non-linear regression (variable slope-four parameter fit model) with by the following formula
where Top is fixed at 100% and Bottom is fixed to 0%, [I]=concentration of inhibitor, IC50=half maximal inhibitory concentration and n=Hill Slope.

Compound	IC50
CNC1=Nc2cc(-c3cc4[nH]ccc4cn3)c(OC)cc2C12CCC2 [Compound 214]	< 0.1 µM
CNC1=Nc2cc(-c3cc4ccncc4[nH]3)c(OC)cc2C12CCC2 [Compound 215]	< 0.1 µM
CNC1=Nc2cc(-c3[nH]c4cnccc4c3Cl)c(OC)cc2C12CCC2 [Compound 216]	< 0.1 µM
CNc1cc(C)nc(Nc2ccc(OC)c(-c3ccc4c(c3)NC(=O)C4)c2)n1 [Compound 218]	> 10 µM
CNc1cc(C)nc(Nc2ccc(OC)c(-c3cc4c(cn3)CC(=O)N4)c2)n1 [Compound 219]	1 to 10 µM
CNc1cc(C)nc(Nc2ccc(OC)c(-c3cc4[nH]ccc4cn3)c2OC)n1 [Compound 220]	> 10 µM
CNc1cc(C)nc(Nc2ccc(OC)c(-c3cc4[nH]ccc4cn3)c2F)n1 [Compound 221]	0.1 to 1 µM
CNCc1cnn(-c2c(OC)ccc(Nc3nc(C)cc(NC)n3)c2OC)c1 [Compound 222]	0.1 to 1 µM
CNc1cc(C)nc(Nc2ccc(OC)c(-c3cnc4cc[nH]c4c3)c2)n1 [Compound 223]	< 0.1 µM
CNc1cc(-c2cc(Nc3nc(C)cc(NC)n3)ccc2OC)ncn1 [Compound 225]	1 to 10 µM
CNc1cc(C)nc(Nc2ccc(OC)c(-c3cc4[nH]ccc4nc3C)c2)n1 [Compound 228]	< 0.1 µM
CNc1cc(C)nc(Nc2ccc(OC)c(-c3cc4[nH]cc(F)c4cn3)c2)n1 [Compound 229]	0.1 to 1 µM
CNc1cc(-c2cc(Nc3nc(C)cc(NC)n3)ccc2OC)nc(C)n1 [Compound 230]	0.1 to 1 µM
COc1cc(NC2CCNCC2)ccc1-c1cc2[nH]ccc2cn1 [Compound 231]	1 to 10 µM
CNc1cc(C)nc(Nc2ccc(OC)c(-c3cc(C4CC4)ncn3)c2)n1 [Compound 232]	> 10 µM
CNc1cc(C)nc(Nc2ccc(OC)c(-c3cc(C4CC4)cnn3)c2)n1 [Compound 233]	1 to 10 µM
CNc1cc(C)nc(Nc2ccc(OC)c(-c3cn4ccnc4cn3)c2)n1 [Compound 234]	> 10 µM
CNc1cc(C)nc(Nc2ccc(OC)c(-c3cc4cnoc4cn3)c2)n1 [Compound 235]	> 10 µM
COc1cc(NC2CCNCC2)ccc1-c1cc(C2CC2)cnn1 [Compound 236]	> 10 µM
CNc1cc(C)nc(Nc2ccc(OC)c(-c3cc4[nH]ccc4c(C)n3)c2)n1 [Compound 237]	< 0.1 µM
CNC1=Nc2cc(-c3[nH]c4cnccc4c3C)c(OC)cc2C12CCC2 [Compound 238, 5′-methoxy-N-methyl-6′-(3-methyl-1H-pyrrolo[2,3-c]pyridin-2-yl)spiro[cyclobutane-1,3′-indol]-2′-amine]	< 0.1 µM
CNc1cc(C)nc(Nc2ccc(C)c(C(=O)Nc3cccnc3)c2)n1 [Compound 239]	> 10 µM
CNc1cc(C)nc(Nc2ccc(Cl)c(C(=O)Nc3cccnc3)c2)n1 [Compound 240]	> 10 µM
CNc1cc(C)nc(Nc2ccc(C)c(-c3cc4ccncc4[nH]3)c2)n1 [Compound 241]	< 0.1 µM
CNc1cc(C)nc(Nc2cccc(C(=O)Nc3cccnc3)c2)n1 [Compound 242]	> 10 µM
